Reference: patent publication US7553966B2, “Glucocorticoid mimetics, methods of making them, pharmaceutical compositions, and uses thereof” (Boehringer Ingelheim Pharmaceuticals, Inc., priority 2002, dated 2009)

Target: T1, human glucocorticoid receptor (GR) complex (Homo sapiens, UniProt P04150)
T1 construct: made in house; host or cells: insect expression system (baculovirus lysate)
T1 sequence (P04150 1-777): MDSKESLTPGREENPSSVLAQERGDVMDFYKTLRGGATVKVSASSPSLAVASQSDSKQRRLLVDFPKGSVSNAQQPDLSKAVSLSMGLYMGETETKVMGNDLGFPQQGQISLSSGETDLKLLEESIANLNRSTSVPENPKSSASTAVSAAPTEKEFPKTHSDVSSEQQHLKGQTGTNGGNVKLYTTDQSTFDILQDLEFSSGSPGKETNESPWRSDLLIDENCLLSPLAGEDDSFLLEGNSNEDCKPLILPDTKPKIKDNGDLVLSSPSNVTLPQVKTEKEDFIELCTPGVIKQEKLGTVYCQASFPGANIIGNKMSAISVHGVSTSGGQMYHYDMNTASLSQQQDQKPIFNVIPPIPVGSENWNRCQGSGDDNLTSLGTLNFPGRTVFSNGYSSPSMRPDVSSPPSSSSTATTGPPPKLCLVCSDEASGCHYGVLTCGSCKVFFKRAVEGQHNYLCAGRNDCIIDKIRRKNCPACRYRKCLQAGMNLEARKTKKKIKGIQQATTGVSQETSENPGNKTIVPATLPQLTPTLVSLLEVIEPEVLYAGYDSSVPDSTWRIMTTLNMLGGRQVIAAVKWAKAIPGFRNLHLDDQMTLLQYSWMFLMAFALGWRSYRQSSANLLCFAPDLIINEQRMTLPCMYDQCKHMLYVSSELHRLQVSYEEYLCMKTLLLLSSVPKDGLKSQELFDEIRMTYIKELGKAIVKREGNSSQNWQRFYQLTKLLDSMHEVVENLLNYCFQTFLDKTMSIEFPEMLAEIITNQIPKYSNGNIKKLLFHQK
Test: Glucocorticoid Receptor Competitive Binding Assay (fluorescence polarization, TAMRA-labeled dexamethasone probe)
Conditions: qualitative statement; competition with TAMRA-labeled dexamethasone
Description: Compounds of the invention were evaluated for binding to the steroid receptor by a fluorescence polarization competitive binding assay.
A. Glucocorticoid Receptor Competitive Binding Assay
Step 1. Characterization of the Fluorescent Probe
The wavelengths for maximum excitation and emission of the fluorescent probe should first be measured. An example of such a probe is rhodamine (TAMRA)-labeled dexamethasone.
The affinity of the probe for the steroid receptor was then determined in a titration experiment. The fluorescence polarization value of the probe in assay buffer was measured on an SLM-8100 fluorometer using the excitation and emission maximum values described above. Aliquots of expression vector lysate were added and fluorescence polarization was measured after each addition until no further change in polarization value was observed. Non-linear least squares regression analysis was used to calculate the dissociation constant of the probe from the polarization values obtained for lysate binding to the probe.
Step 2. Screening for Inhibitors of Probe Binding
This assay uses fluorescence polarization (FP) to quantitate the ability of test compounds to compete with tetramethyl rhodamine (TAMRA)-labeled dexamethasone for binding to a human glucocorticoid receptor (GR) complex prepared from an insect expression system. The assay buffer was: 10 mM TES, 50 mM KCl, 20 mM Na2MoO4. 2H2O, 1.5 mM EDTA, 0.04% w/v CHAPS, 10% v/v glycerol, 1 mM dithiothreitol, pH 7.4. Test compounds were dissolved to 1 mM in neat DMSO and then further diluted to 10× assay concentration in assay buffer supplemented with 10% v/v DMSO. Test compounds were serially diluted at 10× assay concentrations in 10% DMSO-containing buffer in 96-well polypropylene plates. […] Positive controls were reaction mixtures containing no test compound; negative controls (blanks) were reaction mixtures containing 0.7 μM to 2 μM dexamethasone. […] IC50 values were determined by iterative non-linear curve fitting of the FP signal data to a 4-parameter logistic equation.

Row | SMILES | activity in the GR binding assay
1 | COc1c(C(C)(C)CC(O)(Cc2cc3ccccc3[nH]2)C(F)(F)F)ccc2ccccc12 (stereo not drawn) [1,1,1-Trifluoro-2-(1H-indol-2-ylmethyl)-4-(1-methoxynaphthalen-2-yl)-4-methylpentan-2-ol] | potent activity
2 | COc1ccc(C(C)(C)CC(O)(Cc2cc3ccccc3[nH]2)C(F)(F)F)cc1 (stereo not drawn) [1,1,1-Trifluoro-2-(1H-indol-2-ylmethyl)-4-(4-methoxyphenyl)-4-methylpentan-2-ol] | potent activity
3 | CC(C)(CC(O)(Cc1cc2ccccc2[nH]1)C(F)(F)F)c1ccccc1 (stereo not drawn) [1,1,1-Trifluoro-2-(1H-indol-2-ylmethyl)-4-methyl-4-phenylpentan-2-ol] | potent activity
4 | CC(C)(CC(O)(Cc1cc2ccccc2[nH]1)C(F)(F)F)c1ccsc1 (stereo not drawn) [1,1,1-Trifluoro-2-(1H-indol-2-ylmethyl)-4-methyl-4-thiophen-3-ylpentan-2-ol] | potent activity
5 | COc1ccc(F)cc1C(C)(C)CC(O)(Cc1cc2cc(F)ccc2[nH]1)C(F)(F)F (stereo not drawn) [1,1,1-Trifluoro-2-(5-fluoro-1H-indol-2-ylmethyl)-4-(5-fluoro-2-methoxyphenyl)-4-methylpentan-2-ol] | potent activity
6 | CC(C)(CC(O)(Cc1cc2cccc(F)c2[nH]1)C(F)(F)F)c1ccccc1 (stereo not drawn) [1,1,1-Trifluoro-2-(7-fluoro-1H-indol-2-ylmethyl)-4-methyl-4-phenylpentan-2-ol] | potent activity
7 | CC(C)(CC(O)(Cc1cc2ccccc2[nH]1)C(F)(F)F)c1cccc(F)c1 (stereo not drawn) [1,1,1-Trifluoro-4-(3-fluorophenyl)-2-(1H-indol-2-ylmethyl)-4-methylpentan-2-ol] | potent activity
8 | CC(C)(CC(O)(Cc1cc2ccncc2[nH]1)C(F)(F)F)c1cccc(F)c1 (stereo not drawn) [1,1,1-Trifluoro-4-(3-fluorophenyl)-4-methyl-2-(1H-pyrrolo[2,3-c]pyridin-2-ylmethyl)pentan-2-ol] | potent activity
9 | CC(C)(CC(O)(Cc1cc2cnccc2[nH]1)C(F)(F)F)c1cccc(F)c1 (stereo not drawn) [1,1,1-Trifluoro-4-(3-fluorophenyl)-4-methyl-2-(1H-pyrrolo[3,2-c]pyridin-2-ylmethyl)pentan-2-ol] | potent activity
10 | COc1cccc(C(C)(C)CC(O)(Cc2cc3cc(C(F)(F)F)ccc3[nH]2)C(F)(F)F)c1 (stereo not drawn) [1,1,1-Trifluoro-4-(3-methoxyphenyl)-4-methyl-2-(5-trifluoromethyl-1H-indol-2-ylmethyl)pentan-2-ol] | potent activity
11 | CC(C)(CC(O)(Cc1cc2ccncc2[nH]1)C(F)(F)F)c1ccc(F)cc1 (stereo not drawn) [1,1,1-Trifluoro-4-(4-fluorophenyl)-4-methyl-2-(1H-pyrrolo[2,3-c]pyridin-2-ylmethyl)pentan-2-ol] | potent activity
12 | CC(C)(CC(O)(Cc1cc2ccncc2[nH]1)C(F)(F)F)c1cc(F)cc2c1OCC2 (stereo not drawn) [1,1,1-Trifluoro-4-(5-fluoro-2,3-dihydrobenzofuran-7-yl)-4-methyl-2-(1H-pyrrolo[2,3-c]pyridin-2-ylmethyl)pentan-2-ol] | potent activity
13 | CC(C)(CC(O)(Cc1cc(Cl)nc2ccccc12)C(F)(F)F)c1cc(F)ccc1O (stereo not drawn) [1,1,1-Trifluoro-4-(5-fluoro-2-hydroxyphenyl)-4-methyl-2-(2-chloroquinolin-4-ylmethyl)pentan-2-ol] | potent activity
14 | COc1ccc(F)cc1C(C)(C)CC(O)(Cc1cc2ncccc2[nH]1)C(F)(F)F (stereo not drawn) [1,1,1-Trifluoro-4-(5-fluoro-2-methoxyphenyl)-4-methyl-2-(1H-pyrrolo[3,2-b]pyridin-2-ylmethyl)pentan-2-ol] | potent activity
15 | COc1ccc(F)cc1C(C)(C)CC(O)(Cc1ccnc(Cl)c1)C(F)(F)F (stereo not drawn) [1,1,1-Trifluoro-4-(5-fluoro-2-methoxyphenyl)-4-methyl-2-(2-chloropyridin-4-ylmethyl)pentan-2-ol] | potent activity
16 | COc1ccc(F)cc1C(C)(C)CC(O)(Cc1nc2cccc(C)c2[nH]1)C(F)(F)F (stereo not drawn) [1,1,1-Trifluoro-4-(5-fluoro-2-methoxyphenyl)-4-methyl-2-(7-methyl-1H-benzoimidazol-2-ylmethyl)pentan-2-ol] | potent activity
17 | Cc1ccc(F)cc1C(C)(C)CC(O)(Cc1nc2cccc(C)c2[nH]1)C(F)(F)F (stereo not drawn) [1,1,1-Trifluoro-4-(5-fluoro-2-methylphenyl)-4-methyl-2-(7-methyl-1H-benzoimidazol-2-ylmethyl)pentan-2-ol] | potent activity
18 | Cc1ccc(C(C)(C)CC(O)(Cc2ccnc3ccccc23)C(F)(F)F)cc1 (stereo not drawn) [1,1,1-Trifluoro-4-methyl-2-quinolin-4-ylmethyl-4-p-tolylpentan-2-ol] | potent activity
19 | CC(C)(CC(O)(Cc1ccnc2ccccc12)C(F)(F)F)c1ccc2ccccc2c1 (stereo not drawn) [1,1,1-Trifluoro-4-methyl-4-naphthalen-2-yl-2-quinolin-4-ylmethylpentan-2-ol] | potent activity

More lines, now with the values ahead:

Row | activity in the GR binding assay | SMILES
20 | potent activity | CC(C)(CC(O)(Cc1[nH]c2ccccc2c1C#N)C(F)(F)F)c1cccc2c1OCC2 (stereo not drawn)
21 | potent activity | CC(C)(CC(O)(Cc1cc2ccccc2[nH]1)C(F)(F)F)c1ccc2ccccc2c1 (stereo not drawn) [1,1,1-Trifluoro-2-(1H-indol-2-ylmethyl)-4-methyl-4-naphthalen-2-ylpentan-2-ol]
22 | potent activity | Cc1ccc(C(C)(C)CC(O)(Cc2cc3ccccc3[nH]2)C(F)(F)F)cc1 (stereo not drawn) [1,1,1-Trifluoro-2-(1H-indol-2-ylmethyl)-4-methyl-4-p-tolylpentan-2-ol]
23 | potent activity | COc1ccc(F)cc1C(C)(C)CC(O)(Cc1nc2ccc(F)cc2[nH]1)C(F)(F)F (stereo not drawn) [1,1,1-Trifluoro-2-(6-fluoro-1H-benzoimidazol-2-ylmethyl)-4-(5-fluoro-2-methoxyphenyl)-4-methylpentan-2-ol]
24 | potent activity | COc1c(C(C)(C)CC(O)(Cc2ccnc3ccccc23)C(F)(F)F)ccc2ccccc12 (stereo not drawn) [1,1,1-Trifluoro-4-(1-methoxynaphthalen-2-yl)-4-methyl-2-quinolin-4-ylmethylpentan-2-ol]
25 | potent activity | CC(C)(CC(O)(Cc1ccnc2cc(F)ccc12)C(F)(F)F)c1ccc(F)cc1 (stereo not drawn) [1,1,1-Trifluoro-4-(4-fluorophenyl)-2-(7-fluoroquinolin-4-ylmethyl)-4-methylpentan-2-ol]
26 | potent activity | CC(C)(CC(O)(Cc1ccnc(Cl)c1)C(F)(F)F)c1cc(F)ccc1O (stereo not drawn) [1,1,1-Trifluoro-4-(5-fluoro-2-hydroxyphenyl)-4-methyl-2-(2-chloropyridin-4-ylmethyl)pentan-2-ol]
27 | potent activity | COc1ccc(F)cc1C(C)(C)CC(O)(Cc1cc2cccnc2[nH]1)C(F)(F)F (stereo not drawn) [1,1,1-Trifluoro-4-(5-fluoro-2-methoxyphenyl)-4-methyl-2-(1H-pyrrolo[2,3-b]pyridin-2-ylmethyl)pentan-2-ol]
28 | potent activity | COc1ccc(F)cc1C(C)(C)CC(O)(Cc1ccnc(Br)c1)C(F)(F)F (stereo not drawn) [1,1,1-Trifluoro-4-(5-fluoro-2-methoxyphenyl)-4-methyl-2-(2-bromopyridin-4-ylmethyl)pentan-2-ol]
29 | potent activity | COc1ccc(F)cc1C(C)(C)CC(O)(Cc1cc(Cl)nc2ccccc12)C(F)(F)F (stereo not drawn) [1,1,1-Trifluoro-4-(5-fluoro-2-methoxyphenyl)-4-methyl-2-(2-chloroquinolin-4-ylmethyl)pentan-2-ol]
30 | potent activity | CC(C)(CC(O)(Cc1ccnc2ccccc12)C(F)(F)F)c1ccsc1 (stereo not drawn) [1,1,1-Trifluoro-4-methyl-2-quinolin-4-ylmethyl-4-thiophen-3-ylpentan-2-ol]
